One compound from patent publication US11590117B2, “Treatment of a hematologic malignancy with 2-(4-chlorophenyl)-n-((2-(2,6-dioxopiperidin-3-yl)-1-oxoisoindolin-5-yl)methyl)-2,2-difluoroacetamide” (priority 2016, dated 2023) can be followed below.

Assay [1] deals with PBMCs. The assay is described as follows: CellTiter-Glo (CTG) cell proliferation assay, 72 hours, anti-CD3 stimulated. Type of assay: cell-based, human. The following applies: for IC50: Homo sapiens, PBMC. How it is done:
Preparation of Solutions of Test Article: Compounds were plated into black 384-well plates (Corning Inc.) to a final DMSO volume of 0.1% assuming a maximal volume of 50 μL. A 10-point dose response starting at 10 μM with a 1:3 dilution was printed in duplicate by acoustic dispense using the EDC ATS-100 platform.
Cell Proliferation Assays: The effect of Compound 1 on the proliferation/viability of the hematological cell lines (Table 1 Table, Table 2 and Table 3), THLE-2, or PBMCs was assessed after 72 hours incubation using CTG (Promega), according to manufacturer's instructions. Hematological cell lines were dispensed into compound plates by a Multidrop™ Combi Reagent Dispenser (Thermo Scientific, Waltham, Mass.) at a concentration of 0.1 to 0.3×10^6 cells per mL in a 50 μL total volume. THLE-2 cells were seeded out at 1000 cells per well in 50 μL volume and incubated for 72 hours. At 72 hours, 25 μL per well of CTG was dispensed by a Multidrop™ Combi Reagent Dispenser and adenosine triphosphate (ATP) release by viable cells was measured as relative luminescence units after 30 minutes using the Envision platform.
For frozen PBMCs, cells were thawed at 37° C. for 2 minutes in RPMI with 10% FBS and cell counts and viability were measured on the ViCell as previously described. Peripheral blood mononuclear cells were washed and diluted to 1×10^6 cells per mL and dispensed by a Multidrop™ Combi Reagent Dispenser in a volume of 25 μL/well into the compound plates and incubated for 2 hours. After 2 hours, 25 μL of anti-CD3 antibody-bound beads (1 cell. 2 anti-human CD3 antibody-coated M-450 beads) were dispensed per well and incubated for a further 72 hours. After 72 hours, 15 μL of supernatants were collected for the analysis of interleukin (IL)-2 release using the Human IL-2 384-well Tissue Culture Kit (Meso Scale Diagnostics), according to the manufacturer's instructions, and the remaining cell suspension was processed with CTG.
In order to calculate the therapeutic window for Compound 1, the compound was counter-screened against the immortalized (but non-tumorigenic) human hepatocyte-derived cell line THLE-2 (Pfeifer, et al, Proc Natl Acad Sci USA 1993 90(11):5123-5127) and against primary human PBMCs. […] The Compound 1 therapeutic window for the 10 sensitive AML cell lines as compared to THLE-2 cells ranged from 4.1 (KG-1a) to 57 (HNT-34) (method 1) or from 5.7 (KG-1a) to 79.5 (HNT-34) (method 2); the Compound 1 therapeutic window as compared to PBMCs ranged from 2.6 (KG-1a) to 36 (HNT-34)), or from 1.5 (KG-1a) to 21 (HNT-34) (Table 6).
Cultures of 11 different AML cell lines were incubated 72 hours with Compound 1 at concentrations of 0.5 nM to 10 μM. Proliferation was assessed using the CellTitre-Glo® assay. Results for cultures incubated with Compound 1 were normalized to results for control cultures for each cell line. Inhibition of cell growth was also determined in THLE-2 cells at Compound 1 concentrations of 0.1 nM to 100 μM and in PBMCs at Compound 1 concentrations of 0.5 nM to […]. The Compound 1 therapeutic window was calculated using area under the curve (AUC; Activity Area [Barretina et al, Nature (2012) 483603-607] measurements (in arbitrary units) as determined using GraphPad Prism software for plots of cell proliferation vs concentration and dividing the AUC for the immortalized (but nontumorigenic) human THLE-2 hepatocyte cell line or PBMCs by the AUC for the AML cell line.
The effects of Compound 1 in healthy PBMCs were also assessed. Compound 1 was added to PBMC s from one donor at time zero and assessed at 72 hours. This was compared to PBMCs that were pre-activated and proliferating on anti-CD3 antibody-coated plates for 72 hours before Compound 1 was added and the cells were incubated for an additional 72 hours. HNT-34 cells were used as a sensitive positive control cell line. […]
On the technique in general: ATP-based viability assays read luminescence as a measure of living cells.

A further assay relates to HNT-34. The assay is described as follows: Flow cytometry viable cell counting, 72 hours. Type of assay: cell-based. Particulars: Homo sapiens, HNT-34 as sensitive positive control cell line in PBMC comparison, read-out: cell count IC50. How it is done: (§1) The effects of Compound 1 in healthy PBMCs were also assessed. Compound 1 was added to PBMC s from one donor at time zero and assessed at 72 hours. This was compared to PBMCs that were pre-activated and proliferating on anti-CD3 antibody-coated plates for 72 hours before Compound 1 was added and the cells were incubated for an additional 72 hours. HNT-34 cells were used as a sensitive positive control cell line. Peripheral blood mononuclear cells that were pre-activated were resistant to the antiproliferative effects of Compound 1 (IC50>[…]) as determined by CTG and viable cell count. However, Compound 1 did reduce cell proliferation in PBMCs that were not pre-activated, as measured using two methods, CTG and flow cytometry cell counting (CTG IC50=0.1 μM; cell count IC50=0.5 μM). […] Similar or greater differences in Compound 1-induced elevation of caspase 3/7 and membrane depolarization were seen between pre-activated PBMCs and HNT-34 cells.
(A flow cytometer gives signals particle by particle.)

Assay [2] relates to PBMCs. The assay is described as follows: Flow cytometry viable cell counting, 72 hours. Type of assay: cell-based. Particulars: Homo sapiens, PBMC, PBMCs not pre-activated, read-out: cell count IC50. The procedure:
as §1

Assay [3] concerns Bone marrow mononuclear cells (BMMCs) from high risk MDS patients. The assay is described as follows: MDS liquid culture, viable cell counting. Type of assay: cell-based, human. The following applies: 24 hours exposure, 37, 111, 333 and 1000 nM, dose dependent, maintained at least a week. The procedure:
Methods. The effect of Compound 1 on high risk MDS samples was measured in an in vitro liquid culture as well as by colony assays in order to better define its effect on stem/progenitor cells. Bone marrow mononuclear cells (BMMCs) from high risk MDS patients were cultured in vitro in CellGro medium (GellGenix) supplemented with hLDL (40 μg/mL), SCF (50 ng/mL), FLT3 […] (50 ng/mL), IL-3 (10 ng/mL), IL-6 (25 ng/mL) and TPO (100 ng/mL), all from Peprotech. During culture, cells were exposed to different concentrations of Compound 1 (37, 111, 333 and 1000 nM) or DMSO control. After 24 hours, cells were washed twice to remove compound and maintained in culture up to one week, performing viable cell counting on days 1, 3 and 7. Just after compound washout, […] per condition were collected for colony forming assays and another […] were stained for intracellular flow cytometry.

In general, IC50 refers to the concentration that gives 50% inhibition.

For the compound `O=C1CCC(N2Cc3cc(CNC(=O)C(F)(F)c4ccc(Cl)cc4)ccc3C2=O)C(=O)N1` (stereo not drawn) [Compound 1, 2-(4-chlorophenyl)-N-((2-(2,6-dioxopiperidin-3-yl)-1-oxoisoindolin-5-yl)methyl)-2,2-difluoroacetamide], the concentration for half-maximal inhibition (IC50) in the assay on PBMCs [1] (72 h, PBMCs not pre-activated, 72 hours, read-out: CTG IC50) is 100 nM; with PBMCs [1] (72 h, pre-activated PBMCs (72 hours on anti-CD3 plates before compound), 72 hours, CTG and viable cell count, read-out: antiproliferative IC50), over 10000 nM; in the assay with PBMCs [1] (72 h, primary human PBMCs, 72 hours, read-out: antiproliferative IC50) it was 120 nM; in the assay with PBMCs [1] (pre-activated PBMCs, CTG and viable cell count, read-out: antiproliferative IC50), over 10000 nM; with HNT-34, 4 nM; in the assay with PBMCs [2] it was 500 nM. Besides, in the assay on PBMCs [1] (PBMCs normal cells), the “AUC Method 1” value is listed as 251.1 arbitrary units. Besides, the “AUC Method 2” value with PBMCs [1] (PBMCs normal cells) was 145.1 arbitrary units. In assay [3], the “number of viable cells” value is on record as “significantly reduced”.
